Data published in US11051515B2, “3-acyl-benzamides and their use as herbicides” (Bayer Aktiengesellschaft, priority 2017, dated 2021).

Columns and labels:
ALOMY = experiment: Pre-emergence action against ALOMY; assay type: in vivo, Alopecurus myosuroides; settings: dosage 320 g/ha; pre-emergence; scored visually after 3 weeks vs untreated controls; 100% = plants have died, 0% = like control plants
Summary of the method: (§1)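 Seeds sown in sandy loam in wood-fiber pots and covered with soil. Greenhouse growth; visual damage scored after 3 weeks versus untreated controls (100% = dead, 0% = like control).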

AVEFA [1] = experiment: Pre-emergence action against AVEFA; assay type: in vivo, Avena fatua; settings: dosage 320 g/ha, scored visually after 3 weeks vs untreated controls
Summary of the method: as §1

CYPES [2] = experiment: Pre-emergence action against CYPES; assay type: in vivo, Cyperus esculentus; settings: pre-emergence, dosage 320 g/ha, scored visually after 3 weeks vs untreated controls
Summary of the method: as §1

ECHCG [3] = experiment: Pre-emergence action against ECHCG; assay type: in vivo, Echinochloa crus-galli; settings: pre-emergence, dosage 320 g/ha, scored visually after 3 weeks vs untreated controls
Summary of the method: as §1

LOLRI = experiment: Pre-emergence action against LOLRI; assay type: in vivo, Lolium rigidum; settings: dosage 320 g/ha, scored visually after 3 weeks vs untreated controls
From the text: (§2) Seeds of monocotyledonous and dicotyledonous weed plants and crop plants are laid out in sandy loam soil in wood-fiber pots and covered with soil. The compounds of the invention, formulated in the form of wettable powders (WP) or as emulsion concentrates (EC), are then applied to the surface of the covering soil in the form of an aqueous suspension or emulsion at a water application rate equating to […], with addition of 0.2% wetting agent. After the treatment, the pots are placed in a greenhouse and kept under good growth conditions for the trial plants. The damage to the test plants is scored visually after a test period of 3 weeks by comparison with untreated controls (herbicidal activity in percent (%): 100% activity=the plants have died, 0% activity=like control plants).

SETVI [4] = experiment: Pre-emergence action against SETVI; assay type: in vivo, Setaria viridis; settings: pre-emergence, dosage 320 g/ha, scored visually after 3 weeks vs untreated controls
Summary of the method: as §1

ABUTH [5] = experiment: Pre-emergence action against ABUTH; assay type: in vivo, Abutilon theophrasti; settings: pre-emergence, dosage 320 g/ha, scored visually after 3 weeks vs untreated controls
Summary of the method: as §1

AMARE [6] = experiment: Pre-emergence action against AMARE; assay type: in vivo, Amaranthus retroflexus; settings: pre-emergence, dosage 320 g/ha, scored visually after 3 weeks vs untreated controls
Summary of the method: as §1

MATIN [7] = experiment: Pre-emergence action against MATIN; assay type: in vivo, Matricaria inodora; settings: Dosage 320 g/ha, pre-emergence
Summary of the method: as §1

PHBPU [8] = experiment: Pre-emergence action against PHBPU; assay type: in vivo, Pharbitis purpurea; settings: Dosage 320 g/ha, pre-emergence
Summary of the method: as §1

POLCO [9] = experiment: Pre-emergence action against POLCO; assay type: in vivo, Polygonum convolvulus; settings: Dosage 320 g/ha, pre-emergence
Summary of the method: as §1

STEME [10] = experiment: Pre-emergence action against STEME; assay type: in vivo, Stellaria media; settings: Dosage 320 g/ha, pre-emergence
Summary of the method: as §1

VIOTR [11] = experiment: Pre-emergence action against VIOTR; assay type: in vivo, Viola tricolor; settings: Dosage 320 g/ha, pre-emergence
Summary of the method: as §1

VERPE = experiment: Pre-emergence action against VERPE; assay type: in vivo, Veronica persica; settings: Dosage 320 g/ha, pre-emergence
Summary of the method: as §1

HORMU = experiment: Pre-emergence action against HORMU; assay type: in vivo, Hordeum murinum; settings: Dosage 320 g/ha
From the text: as §2

CYPES [12] = experiment: Post-emergence action against CYPES; assay type: in vivo, Cyperus esculentus; settings: post-emergence, dosage 80 g/ha, visual assessment about 3 weeks after treatment vs untreated controls
Summary of the method: (§3)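 Post-emergence foliar spray on greenhouse plants at the one-leaf stage, using wettable-powder or emulsion-concentrate formulations in water (600 to […], plus 0.2% wetting agent). Damage scored by eye roughly 3 weeks later against untreated plants: 0% = like control, 100% = dead.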

ECHCG [13] = experiment: Post-emergence action against ECHCG; assay type: in vivo, Echinochloa crus-galli; settings: post-emergence, dosage 80 g/ha, visual assessment about 3 weeks after treatment vs untreated controls
Summary of the method: as §3

SETVI [14] = experiment: Post-emergence action against SETVI; assay type: in vivo, Setaria viridis; settings: post-emergence, dosage 80 g/ha, visual assessment about 3 weeks after treatment vs untreated controls
Summary of the method: as §3

ABUTH [15] = experiment: Post-emergence action against ABUTH; assay type: in vivo, Abutilon theophrasti; settings: post-emergence, dosage 80 g/ha, visual assessment about 3 weeks after treatment vs untreated controls
Summary of the method: as §3

AMARE [16] = experiment: Post-emergence action against AMARE; assay type: in vivo, Amaranthus retroflexus; settings: post-emergence, dosage 80 g/ha, visual assessment about 3 weeks after treatment vs untreated controls
Summary of the method: as §3

MATIN [17] = experiment: Post-emergence action against MATIN; assay type: in vivo, Matricaria inodora; settings: post-emergence, dosage 80 g/ha, visual assessment about 3 weeks after treatment vs untreated controls
Summary of the method: as §3

PHBPU [18] = experiment: Post-emergence action against PHBPU; assay type: in vivo, Pharbitis purpurea; settings: post-emergence, dosage 80 g/ha
Summary of the method: as §3

POLCO [19] = experiment: Post-emergence action against POLCO; assay type: in vivo, Polygonum convolvulus; settings: post-emergence, dosage 80 g/ha
Summary of the method: as §3

STEME [20] = experiment: Post-emergence action against STEME; assay type: in vivo, Stellaria media; settings: post-emergence, dosage 80 g/ha
Summary of the method: as §3

VIOTR [21] = experiment: Post-emergence action against VIOTR; assay type: in vivo, Viola tricolor; settings: post-emergence, dosage 80 g/ha
Summary of the method: as §3

AVEFA [22] = experiment: Post-emergence action against AVEFA; assay type: in vivo, Avena fatua; settings: post-emergence, dosage 80 g/ha, visual assessment about 3 weeks after treatment vs untreated controls
Summary of the method: as §3

| SMILES | Pre-emergence action against ALOMY (herbicidal activity in percent) (ALOMY) | Pre-emergence action against AVEFA (herbicidal activity) (AVEFA [1]) | Pre-emergence action against CYPES (herbicidal activity) (CYPES [2]) | Pre-emergence action against ECHCG (herbicidal activity) (ECHCG [3]) | Pre-emergence action against LOLRI (herbicidal activity) (LOLRI) | SETVI (Table B8, pre-emergence herbicidal activity) (SETVI [4]) | Pre-emergence action against ABUTH (herbicidal activity) (ABUTH [5]) | Pre-emergence action against AMARE (herbicidal activity) (AMARE [6]) | Pre-emergence action against MATIN (MATIN [7]) | Pre-emergence action against STEME (STEME [10]) | Pre-emergence action against VIOTR (VIOTR [11]) | Pre-emergence action against VERPE (VERPE) | Pre-emergence action against HORMU (HORMU) | Post-emergence action against ECHCG (herbicidal action in percent) (ECHCG [13]) | Post-emergence action against SETVI (herbicidal action in percent) (SETVI [14]) | Post-emergence action against ABUTH (herbicidal action in percent) (ABUTH [15]) | Post-emergence action against AMARE (herbicidal action in percent) (AMARE [16]) | Post-emergence action against MATIN (herbicidal action in percent) (MATIN [17]) | Post-emergence action against PHBPU (PHBPU [18]) | Post-emergence action against STEME (STEME [20]) | also measured |
| --- | --- | --- | --- | --- | --- | --- | --- | --- | --- | --- | --- | --- | --- | --- | --- | --- | --- | --- | --- | --- | --- |
| CCn1nnnc1NC(=O)c1ccc(C(F)F)c(C(C)=O)c1Cl [2-164] | 100% | 90% | 100% | 100% | 80% | 100% | 100% | 100% | 100% | 100% | 100% | 100% | 80% | 100% | 100% | 100% | 100% | 100% | 100 | 100 | Pre-emergence action against PHBPU (PHBPU [8]): 90%; Pre-emergence action against POLCO (POLCO [9]): 100%; Post-emergence action against CYPES (herbicidal action in percent) (CYPES [12]): 90%; Post-emergence action against POLCO (POLCO [19]): 80; Post-emergence action against VIOTR (VIOTR [21]): 100 |
| CCCn1nnnc1NC(=O)c1ccc(C(F)F)c(C(=O)C2CC2)c1Cl [3-168] | 100% | 100% | – | 100% | 100% | 100% | 100% | 100% | 100% | 100% | 100% | 100% | 90% | 100% | 100% | 100% | 100% | 100% | 100 | 100 | Pre-emergence action against PHBPU (PHBPU [8]): 100%; Pre-emergence action against POLCO (POLCO [9]): 80%; Post-emergence action against AVEFA (herbicidal action in percent) (AVEFA [22]): 90%; Post-emergence action against CYPES (herbicidal action in percent) (CYPES [12]): 90%; Post-emergence action against VIOTR (VIOTR [21]): 100 |
| Cn1nnnc1NC(=O)c1ccc(C(F)(F)F)c(C(=O)C2(C)CC2)c1Cl [1-147] | 100% | 90% | 100% | 100% | 90% | 100% | 100% | 100% | 100% | 100% | 100% | 100% | 90% | 100% | 100% | 100% | 100% | 90% | 80 | 80 | Post-emergence action against AVEFA (herbicidal action in percent) (AVEFA [22]): 100% |
